What was measured:
Format in all cases: in vivo
[1] = test system: velvetleaf (Abutilon theophrasti); assay: Test C; parameters: key: 0 was no effect; 100 was complete control; settings: PREEMERGENCE
[2] = test system: lambsquarters (Chenopodium album); assay: Test C; parameters: key: 0 was no effect; 100 was complete control; settings: PREEMERGENCE
[3] = test system: sandbur (Cenchrus echinatus); assay: Test E pre-/postemergence/post directed; parameters: key: 0 is no injury; 100 is complete control; settings: PREEMERGENCE, Rate 32 g/ha
Description: (§1) Seeds, tubers, or plant parts of alexandergrass (Brachiaria plantaginea), annual bluegrass (Poa annua), arrowleaf sida (Sida rhombifolia), barnyardgrass (Echinochloa crus-galli), bermudagrass (Cynodon dactylon), citrus (Citrus sinensis), common chickweed (Stellaria media), common purslane (Portulaca oleracea), common ragweed (Ambrosia elatior), common groundsel (Senecio vulgaris), dallisgrass (Paspalum dilatatum), goosegrass (Eleusine indica), green foxtail (Setaria viridis), guineagrass (Panicum maximum), itchgrass (Rottboellia exaltata), johnson grass (Sorghum halepense), kochia (Kochia scoparia), large crabgrass (Digitaria sanguinalis), leafy spurge (Euphorbia esula), pitted morningglory (Ipomoea lacunosa), purple nutsedge (Cyperus rotundus), quackgrass (Agropyron repens), Russian thistle (Salsola kali), sandbur (Cenchrus echinatus), sourgrass (Trichachne insularis), Spanishneedles (Bidens bipinnata), sugarcane (Saccharum officinarum), surinam grass (Brachiaria decumbens) and tall mallow (Malva sylvestris) were planted into greenhouse pots of flats containing greenhouse planting medium. Plant species were grown grown in separate pots or individual compartments. Preemergence applications were made within one day of planting the seed or plant part. Postemergence applications were applied when the plants were in the two to four leaf stage (three to twenty cm).
(§2) Test chemicals were formulated in a non-phytotoxic solvent mixture which included a surfactant and applied preemergence to the soil surface, postemergence to the plants or as a post directed spray to plants and soil at the base of the target species. Untreated control plants and treated plants were placed in the greenhouse and visually evaluated for injury 13 to 21 days after herbicide application. Plant response ratings, summarized in Table E, are based on a 0 to 100 scale where 0 is no injury and 100 is complete control. A dash (−) response means no test result.

[4] = test system: purple nutsedge (Cyperus rotundus); assay: Test E pre-/postemergence/post directed; parameters: key: 0 is no injury; 100 is complete control
Description: as §1, §2

[5] = test system: field bindweed (Convolvulus arvensis); assay: Test C; parameters: key: 0 was no effect; 100 was complete control; settings: PREEMERGENCE
[6] = test system: wild poinsettia (Euphorbia heterophylla); assay: Test C; parameters: key: 0 was no effect; 100 was complete control; settings: PREEMERGENCE
[7] = test system: fall panicum (Panicum dichotomiflorum); assay: Test C; parameters: key: 0 was no effect; 100 was complete control; settings: PREEMERGENCE
[8] = test system: johnsongrass (Sorghum halepense); assay: Test C; settings: PREEMERGENCE
[9] = test system: common ragweed (Ambrosia elatior); assay: Test C; parameters: key: 0 was no effect; 100 was complete control; settings: PREEMERGENCE
[10] = test system: hairy beggarticks (Bidens pilosa); assay: Test C; parameters: key: 0 was no effect; 100 was complete control; settings: PREEMERGENCE
[11] = test system: surinam grass (Brachiaria decumbens); assay: Test E pre-/postemergence/post directed
Description: as §1, §2

[12] = test system: alexandergrass (Brachiaria plantaginea); assay: Test E pre-/postemergence/post directed
Description: as §1, §2

[13] = test system: common groundsel (Senecio vulgaris); assay: Test E pre-/postemergence/post directed; settings: PREEMERGENCE
Description: as §1, §2

[14] = test system: large crabgrass (Digitaria sanguinalis); assay: Test C; parameters: key: 0 was no effect; 100 was complete control; settings: PREEMERGENCE
[15] = test system: cocklebur (Xanthium strumarium); assay: Test C; parameters: key: 0 was no effect; 100 was complete control; settings: PREEMERGENCE

Q: Which results are given for Cc1cnc(-n2ccc(C(F)(F)F)n2)nc1Cc1cccc(OC(F)(F)F)c1 [Compound 42]?
A: Plant response rating, Velvetleaf ([1]; Rate 35 g/ha): 40; Plant response rating, Velvetleaf ([1]; Rate 70 g/ha): 80; Plant response rating, Velvetleaf ([1]; Rate 140 g/ha): 95; Plant response rating, Lambsquarters ([2]; Rate 35 g/ha): 85; Plant response rating, Lambsquarters ([2]; Rate 70 g/ha): 100; Plant response rating, Lambsquarters ([2]; Rate 140 g/ha): 100; Plant response rating, Sandbur [3]: 0; Plant response rating, Purple nutsedge ([4]; PREEMERGENCE, Rate 32 g/ha): 20; Plant response rating, Purple nutsedge ([4]; PREEMERGENCE, Rate 64 g/ha): 30; Plant response rating, Purple nutsedge ([4]; PREEMERGENCE, Rate 125 g/ha): 30; Plant response rating, Purple nutsedge ([4]; PREEMERGENCE, Rate 250 g/ha): 30; Plant response rating, Field bindweed ([5]; Rate 35 g/ha): 95; Plant response rating, Field bindweed ([5]; Rate 70 g/ha): 100; Plant response rating, Field bindweed ([5]; Rate 140 g/ha): 100; Plant response rating, Wild poinsettia ([6]; Rate 35 g/ha): 25; Plant response rating, Wild poinsettia ([6]; Rate 70 g/ha): 30; Plant response rating, Wild poinsettia ([6]; Rate 140 g/ha): 85; Plant response rating, Fall panicum ([7]; Rate 35 g/ha): 50; Plant response rating, Fall panicum ([7]; Rate 70 g/ha): 85; Plant response rating, Fall panicum ([7]; Rate 140 g/ha): 100; Plant response rating, Johnsongrass ([8]; Rate 35 g/ha): 70; Plant response rating, Johnsongrass ([8]; Rate 70 g/ha): 70; Plant response rating, Johnsongrass ([8]; Rate 140 g/ha): 85; Plant response rating, Common ragweed ([9]; Rate 35 g/ha): 20; Plant response rating, Common ragweed ([9]; Rate 70 g/ha): 85; Plant response rating, Common ragweed ([9]; Rate 140 g/ha): 85; Plant response rating, H. beggarticks ([10]; Rate 35 g/ha): 0; Plant response rating, H. beggarticks ([10]; Rate 140 g/ha): 90; Plant response rating, Surinam grass ([11]; PREEMERGENCE, Rate 32 g/ha): 40; Plant response rating, Surinam grass ([11]; PREEMERGENCE, Rate 64 g/ha): 50; Plant response rating, Alexandergrass ([12]; PREEMERGENCE, Rate 32 g/ha): 20; Plant response rating, Alexandergrass ([12]; PREEMERGENCE, Rate 64 g/ha): 40; Plant response rating, Alexandergrass ([12]; PREEMERGENCE, Rate 125 g/ha): 90; Plant response rating, Alexandergrass ([12]; PREEMERGENCE, Rate 250 g/ha): 90; Plant response rating, Com. groundsel ([13]; Rate 32 g/ha): 90; Plant response rating, Large crabgrass ([14]; Rate 35 g/ha): 80; Plant response rating, Large crabgrass ([14]; Rate 70 g/ha): 100; Plant response rating, Large crabgrass ([14]; Rate 140 g/ha): 100; Plant response rating, Cocklebur ([15]; Rate 35 g/ha): 0; Plant response rating, Cocklebur ([15]; Rate 140 g/ha): 60

Q: How did the “Plant response rating, Velvetleaf” value ([1]; Rate 35 g/ha) turn out when Cc1cnc(-n2ccc(C(F)(F)F)n2)nc1Cn1ccc(C(F)(F)F)n1 [Compound 52] was run?
A: Its value is 70.

Q: What about the “Plant response rating, Velvetleaf” value ([1]; Rate 70 g/ha) of the same molecule?
A: The value was 100.

Q: What about the “Plant response rating, Velvetleaf” value ([1]; Rate 140 g/ha) of the same molecule?
A: The value was 100.

Q: And the “Plant response rating, Lambsquarters” value ([2]; Rate 35 g/ha)?
A: Its value is 100.

Q: And the “Plant response rating, Lambsquarters” value ([2]; Rate 70 g/ha)?
A: The value was 100.

Q: What about the “Plant response rating, Lambsquarters” value ([2]; Rate 140 g/ha) of the same molecule?
A: The value was 100.

Q: And the “Plant response rating, Sandbur” value [3]?
A: Its value is 0.

Q: What about the “Plant response rating, Purple nutsedge” value ([4]; POSTEMERGENCE, Rate 125 g/ha) of the same molecule?
A: The value was 40.

Q: What about the “Plant response rating, Purple nutsedge” value ([4]; POSTEMERGENCE, Rate 250 g/ha) of the same molecule?
A: The value was 50.

Q: What about the “Plant response rating, Purple nutsedge” value ([4]; PREEMERGENCE, Rate 32 g/ha) of the same molecule?
A: Its value is 5.

Q: And the “Plant response rating, Purple nutsedge” value ([4]; PREEMERGENCE, Rate 64 g/ha)?
A: Its value is 30.

Q: And the “Plant response rating, Purple nutsedge” value ([4]; PREEMERGENCE, Rate 125 g/ha)?
A: The value was 50.

Q: What about the “Plant response rating, Field bindweed” value ([5]; Rate 35 g/ha) of the same molecule?
A: Its value is 100.

Q: What about the “Plant response rating, Field bindweed” value ([5]; Rate 70 g/ha) of the same molecule?
A: The value was 100.

Q: And the “Plant response rating, Field bindweed” value ([5]; Rate 140 g/ha)?
A: The value was 100.

Q: What about the “Plant response rating, Wild poinsettia” value ([6]; Rate 70 g/ha) of the same molecule?
A: Its value is 40.

Q: What about the “Plant response rating, Wild poinsettia” value ([6]; Rate 140 g/ha) of the same molecule?
A: The value was 100.

Q: And the “Plant response rating, Fall panicum” value ([7]; Rate 35 g/ha)?
A: Its value is 100.

Q: What about the “Plant response rating, Fall panicum” value ([7]; Rate 70 g/ha) of the same molecule?
A: Its value is 100.

Q: What about the “Plant response rating, Fall panicum” value ([7]; Rate 140 g/ha) of the same molecule?
A: Its value is 100.

Q: What about the “Plant response rating, Johnsongrass” value ([8]; Rate 35 g/ha) of the same molecule?
A: Its value is 40.

Q: And the “Plant response rating, Johnsongrass” value ([8]; Rate 70 g/ha)?
A: The value was 50.

Q: What about the “Plant response rating, Johnsongrass” value ([8]; Rate 140 g/ha) of the same molecule?
A: Its value is 80.

Q: What about the “Plant response rating, Common ragweed” value ([9]; Rate 35 g/ha) of the same molecule?
A: The value was 40.

Q: And the “Plant response rating, Common ragweed” value ([9]; Rate 70 g/ha)?
A: Its value is 60.

Q: What about the “Plant response rating, Common ragweed” value ([9]; Rate 140 g/ha) of the same molecule?
A: The value was 100.

Q: And the “Plant response rating, H. beggarticks” value ([10]; Rate 35 g/ha)?
A: Its value is 0.

Q: What about the “Plant response rating, H. beggarticks” value ([10]; Rate 70 g/ha) of the same molecule?
A: Its value is 0.

Q: What about the “Plant response rating, H. beggarticks” value ([10]; Rate 140 g/ha) of the same molecule?
A: The value was 30.

Q: What about the “Plant response rating, Surinam grass” value ([11]; POSTEMERGENCE, Rate 125 g/ha) of the same molecule?
A: The value was 75.

Q: What about the “Plant response rating, Surinam grass” value ([11]; POSTEMERGENCE, Rate 250 g/ha) of the same molecule?
A: The value was 75.

Q: What about the “Plant response rating, Surinam grass” value ([11]; PREEMERGENCE, Rate 32 g/ha) of the same molecule?
A: Its value is 30.

Q: And the “Plant response rating, Surinam grass” value ([11]; PREEMERGENCE, Rate 64 g/ha)?
A: The value was 70.

Q: What about the “Plant response rating, Surinam grass” value ([11]; PREEMERGENCE, Rate 125 g/ha) of the same molecule?
A: The value was 80.

Q: What about the “Plant response rating, Alexandergrass” value ([12]; POSTEMERGENCE, Rate 125 g/ha) of the same molecule?
A: The value was 10.

Q: And the “Plant response rating, Alexandergrass” value ([12]; POSTEMERGENCE, Rate 250 g/ha)?
A: Its value is 75.

Q: And the “Plant response rating, Alexandergrass” value ([12]; PREEMERGENCE, Rate 32 g/ha)?
A: The value was 20.

Q: And the “Plant response rating, Alexandergrass” value ([12]; PREEMERGENCE, Rate 64 g/ha)?
A: The value was 75.

Q: And the “Plant response rating, Alexandergrass” value ([12]; PREEMERGENCE, Rate 125 g/ha)?
A: Its value is 75.

Q: What about the “Plant response rating, Com. groundsel” value ([13]; Rate 32 g/ha) of the same molecule?
A: The value was 35.

Q: What about the “Plant response rating, Com. groundsel” value ([13]; Rate 64 g/ha) of the same molecule?
A: The value was 98.

Q: What about the “Plant response rating, Large crabgrass” value ([14]; Rate 35 g/ha) of the same molecule?
A: Its value is 100.

Q: And the “Plant response rating, Large crabgrass” value ([14]; Rate 70 g/ha)?
A: Its value is 100.

Q: And the “Plant response rating, Large crabgrass” value ([14]; Rate 140 g/ha)?
A: The value was 100.

Q: What about the “Plant response rating, Cocklebur” value ([15]; Rate 70 g/ha) of the same molecule?
A: The value was 0.

Q: What about the “Plant response rating, Cocklebur” value ([15]; Rate 140 g/ha) of the same molecule?
A: Its value is 20.

— patent publication US6525001B1, “Substituted pyrimidine and pyridine herbicides” (Mid-American Commercialization Corporation, priority 1997, dated 2003)
